Measurements: patent publication US20100256160A1, “METHOD OF ADMINISTERING AN ANTITUMOR COMPOUND” (NERVIANO MEDICAL SCIENCES S.R.L., priority 2006, published 2010)

What was measured:
[1] = test system: patients with advanced/metastatic solid tumors; assay: Two-center phase I dose escalation trial, 6-hours IV infusion weekly for 3 consecutive weeks in a 28-day cycle; assay type: in vivo
Protocol: The infusion duration was selected to reduce the potential for Cmax related toxicities. Forty patients were treated with doses ranging from 45 to 400 mg/m^2. […] In order to define the recommended dose for phase II, 330 mg/m^2 dose level was investigated.

[2] = test system: patients with refractory or resistant solid tumours; assay: Phase I dose escalation trial, 24 hours iv infusion once every two weeks: toxicity and response; assay type: in vivo
Protocol: (§1) A phase I pharmacological trial was carried out to investigate the iv administration of Compound 1 given in 24 hours infusion once every two weeks in patients with refractory or resistant solid tumours, including lung, colorectal, gastro-oesophageal, cervix, Ewing, renal, head and neck, mesothelioma and cancer of unknown primary.
This was a dose escalation study. Cohorts of 3-6 patients were sequentially allotted to progressively higher dose levels (DL) of Compound 1 based on the number of dose limiting toxicities (DLTs) observed. As per protocol, definition of DLTs were grade (G) 4 neutropenia lasting >7 days, febrile neutropenia, neutropenic infection, any G3 or 4 non-hematological drug related toxicities during the first cycle of treatment.
(§2) Forty patients were enrolled. Seven DLs were explored (45, 90, 180, 360, 500, 650 and 580 mg/m^2). […] Except one G3 diarrhea, pyrexia and fatigue in one patient each, all other drug related non-hematological adverse events were G1 or 2 (fatigue, anorexia, nausea, vomiting, and ejection fraction decreased). One DLT (neutropenic infection) in the 360 mg/m^2, 2 DLTs (neutropenic infection and febrile neutropenia) at DL 650 mg/m^2 and 2 DLTs at 580 mg/m^2 (G 3 liver enzyme increase and febrile neutropenia) were reported. The MTD has been exceeded at 650 and 580 mg/m^2.

Aurora kinases (AKs) C = biological target: T1, Aurora kinases (AKs) C (Homo sapiens, UniProt Q9UQB9); assay: Inhibitory potency towards Aurora kinase C; assay type: biochemical
T1 sequence (Q9UQB9 1-309): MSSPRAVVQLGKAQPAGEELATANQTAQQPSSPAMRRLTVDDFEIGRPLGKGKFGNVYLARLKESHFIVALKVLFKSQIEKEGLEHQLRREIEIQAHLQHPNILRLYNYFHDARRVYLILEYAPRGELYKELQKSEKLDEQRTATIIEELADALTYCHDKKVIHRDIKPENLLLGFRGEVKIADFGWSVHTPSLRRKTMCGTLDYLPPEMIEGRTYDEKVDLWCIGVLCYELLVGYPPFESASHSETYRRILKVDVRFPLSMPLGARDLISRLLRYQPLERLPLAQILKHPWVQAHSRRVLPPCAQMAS

[3] = Pharmacokinetics in phase I trial, 24 hours iv infusion once every two weeks; assay type: in vivo, human; details: patients
Protocol: as §1
Neutropenia was the dose-limiting toxicity for Compound 1 and easily managed. […] Biomarker modulation occurred at ≧500 mg/m^2. […] The recommended dose for Phase II was 500 mg/m^2. Furthermore the protocol was amended to increase the dose up to 750 mg/m^2 with prophylactic treatment with G-CSF.

[4] = test system: patients with hematopoietic malignancies such as relapsed/refractory acute leukemia; assay: Phase I study, 3-hour intravenous infusion for three consecutive days every two weeks; assay type: in vivo, human; details: 100, 150, 210, and 280 mg/m^2/daily; ten patients
Protocol: A phase I pharmacological study to investigate the iv administration of Compound 1 given in a 3-hour intravenous infusion for three consecutive days every two weeks in patients with hematopoietic malignancies such as relapsed/refractory acute leukemia. Ten patients have been enrolled in 4 dose levels (100, 150, 210, and 280 mg/m^2/daily). […] Dose escalation is still proceeding.

Aurora kinases (AKs) B = Aurora kinases (AKs) B (Homo sapiens, UniProt Q96GD4); assay: Inhibitory potency towards Aurora kinase B; assay type: biochemical
[5] = test system: histone H3 phosphorylation; assay: Histone H3 phosphorylation in skin biopsies of patients, phase I trial 24 hours infusion; assay type: in vivo, human; details: 24 h iv infusion
Protocol: as §1, §2

Aurora kinases (AKs) A = biological target: T2, Aurora kinases (AKs) A (Homo sapiens, UniProt O14965); assay: Inhibitory potency towards Aurora kinase A; assay type: biochemical
T2 sequence (O14965 1-403): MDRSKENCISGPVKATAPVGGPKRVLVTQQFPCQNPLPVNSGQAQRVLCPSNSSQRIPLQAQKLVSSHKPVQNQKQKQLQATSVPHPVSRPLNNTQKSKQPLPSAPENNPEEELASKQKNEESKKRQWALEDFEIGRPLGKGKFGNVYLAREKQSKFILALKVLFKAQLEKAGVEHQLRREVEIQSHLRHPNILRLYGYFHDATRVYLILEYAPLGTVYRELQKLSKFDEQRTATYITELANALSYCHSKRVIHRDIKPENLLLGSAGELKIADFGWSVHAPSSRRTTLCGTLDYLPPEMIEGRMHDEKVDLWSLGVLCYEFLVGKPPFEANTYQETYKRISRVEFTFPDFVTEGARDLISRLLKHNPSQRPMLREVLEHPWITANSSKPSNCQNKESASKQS

Aurora kinases (AKs) B, sequence (Q96GD4 whole entry, the tested form may be a part): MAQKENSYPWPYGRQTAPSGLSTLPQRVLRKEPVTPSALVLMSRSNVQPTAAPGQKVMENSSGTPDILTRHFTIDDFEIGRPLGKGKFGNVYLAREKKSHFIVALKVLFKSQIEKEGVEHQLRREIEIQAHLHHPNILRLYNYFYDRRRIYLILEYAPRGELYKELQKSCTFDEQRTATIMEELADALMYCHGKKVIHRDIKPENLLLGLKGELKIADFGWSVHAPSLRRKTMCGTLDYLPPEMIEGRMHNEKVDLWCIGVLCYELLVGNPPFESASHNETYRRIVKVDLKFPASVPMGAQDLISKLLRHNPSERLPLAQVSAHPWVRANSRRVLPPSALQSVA

With CO[C@@H](C(=O)N1Cc2n[nH]c(NC(=O)c3ccc(N4CCN(C)CC4)cc3)c2C1)c1ccccc1 [Compound 1, N-{5-[(2R)-2-methoxy-2-phenylethanoyl]-1,4,5,6-tetrahydropyrrolo[3,4-c]pyrazol-3-yl}-4-(4-methylpiperazin-1-yl)benzamide] the “uncomplicated grade 3 neutropenia” value ([1]; 250 mg/m^2) was “frequently reported”, the drug-related deaths ([1]; 45 to 400 mg/m^2) was “No drug-related deaths” and the hematological toxicity reported ([1]; 45 to 400 mg/m^2, 6-hours IV infusion days 1, 8, 15 every 28 days) was “Uncomplicated neutropenia of short duration”. The “drug-related non hematological toxicities, severity” value ([1]; G1/G2 diarrhea, nausea, vomiting, fatigue, anorexia and blood pressure increase) was “mild or moderate”, the “number of patients with stable disease as best response” value ([1]; forty patients treated) was “Seven” and the “number of stable-disease patients with response lasting more than seven months” value ([1]; of the seven patients with stable disease) was “four”. The “MTD (exceeded at 650 and 580 mg/m^2)” value ([2]; 24 h iv infusion every two weeks) was less than 580 mg/m^2, the “number of pts with stable disease as best response” value ([2]; forty patients enrolled) was “Nine” and the “recommended dose for Phase II” value ([2]; human, in vivo, iv) was 500 mg/m^2. For the same compound, the dose-limiting toxicity ([2]; in vivo, iv) was “Neutropenia”, the “non-hematological drug related adverse events, severity” value ([2]; in vivo, iv) was “mild or moderate” and the “number of stable-disease pts with response duration >6 months” value ([2]; of the nine pts with stable disease) was 3. The “inhibitory potency towards Aurora kinase C” value (Aurora kinases (AKs) C) was “significant inhibitory potency”, the clearance ([3]; human, in vivo) was 5 to 7.5 mL/min/kg and the half-life ([3]; human, in vivo, read-out: terminal half-life) was 1080 to 1800 min. For the same compound, the pharmacokinetic behavior [3] was “dose-proportional and time-independent behavior”, the “pharmacokinetic linearity and variability” value [3] was “linear with low inter-individual variability” and the volume of distribution [3] was 2-4 times total body water. For the same compound, the tolerability of regimen [4] was “well tolerated”, the “inhibitory potency towards Aurora kinase B” value (Aurora kinases (AKs) B) was “significant inhibitory potency” and the “dose at which inhibition of histone H3 phosphorylation (biomarker modulation) was evident” value [5] was no less than 500 mg/m^2. The “inhibitory potency towards Aurora kinase A” value (Aurora kinases (AKs) A) was “significant inhibitory potency”.
